According to patent US20230126447A1, “OCULAR DRUG DEPOT FOR COMPLEMENT-MEDIATED DISORDERS” (priority 2020, published 2023):
Values joined by “and” are separate entries in the source; they are usually repeats but may differ in a detail not shown here. Identical values can stand only once. Like-named read-outs stand apart in the source and are kept apart here.

Assays:
[1] = Ocular tissue and plasma pharmacokinetics, 50 mg/kg BID oral, Dutch Belted rabbits (Example 4/5); type: in vivo; settings: for concentration at 96 h / concentration at 168 h / concentration at 0 h / concentration at 1 h / concentration at 6 h / concentration at 24 h / concentration at 240 h: 50 mg/kg
Procedure: Study design, including group designation and dose levels, are outlined in Table 15. […] Two Dutch Belted rabbits received vehicle only oral gavage doses for tolerability assessment. […] The dose volume was 5 mL/kg/dose for all groups. Safety was assessed with toxicological and ophthalmic examinations, including slit lamp biomicroscopy, indirect ophthalmoscopy, rebound tonometry, and ultrasonic corneal pachymetry.
For the pharmacokinetic determination, a single blood sample was taken from each rabbit from Groups 1 and 4 at one hour post-dose on Day 15, Group 2 at one hour post-dose on Day 8, and Group 3 at pre-dose, 1, 6, 24, 96, 168, and 240 hours post-dose on Day 15, with the eyes collected at the same time as blood sampling. Plasma, vitreous humor (VH), retina, choroid-retina pigmented epithelium (Choroid-RPE), optic nerve (ON), and iris-ciliary body (I-CB) were analyzed by LC-MS/MS to quantify test article concentrations. The lower limit of quantitation (LLOQ) in plasma and vitreous humor was 1.0 ng/mL. The LLOQ was 6.0 ng/g in retina, choroid-RPE, and I-CB and the optic nerve LLOQ was 15 ng/g, assuming tissue density of 1 g/mL where relevant. […]

[2] = Stability under melanin binding assay conditions; settings: 1 h
Procedure: […] The melanin solution was stored in the dark at 37° C. until use.
The assay plates containing samples with and without melanin were incubated in the dark with shaking at 37° C. for 1 hour. Following incubation, the samples were centrifuged for 15 minutes at approximately 4000 rpm at 37° C. to sediment the melanin. Sample supernatant (3 μL) was added to 100 μL of acetonitrile containing the internal standard and then diluted with water (197 μL).
% Stability=Mean Total Conc. (μM) after 1 Hour/Mean Total Conc. (μM) at Time Zero×100%

[3] = male, Dutch Belted, po, Optic Nerve, DB rabbit, 50 mg/kg BID, Day 15
[4] = male, Dutch Belted, po, Plasma, DB rabbit, 50 mg/kg BID, Day 15
[5] = male, Dutch Belted, po, Retina, DB rabbit, 50 mg/kg BID, Day 15
[6] = male, Dutch Belted, po, Vitreous Humor, DB rabbit, 50 mg/kg BID, Day 15

## CC(=O)c1nn(CC(=O)N2C[C@H](F)C[C@H]2C(=O)Nc2cccc(Br)n2)c2ccc(-c3cnc(C)nc3)cc12 [Compound 1, (2S,4R)-1-(2-(3-Acetyl-5-(2-methylpyrimidin-5-yl)-1H-indazol-1-yl)acetyl)-N-(6-bromopyridin-2-yl)-4-fluoropyrrolidine-2-carboxamide]
[1]; [3]
  MRT last: 4.79 h
  Tmax: 1 h
  half-life: 7.82 h
[1]; [4]
  AUC(0-inf): 10100 ng·h/mL
  Cmax: 2900 ng/mL
  MRT last: 4.73 h
  Tmax: 1 h
  half-life: 5.98 h
[1]; male, Dutch Belted, po, Plasma, DB rabbit, 50 mg/kg BID, Day 15, read-out: AUC0-t
  AUC(0-t): 9790 ng·h/mL
[1]; [5]
  Cmax: 2120 ng/g
  MRT last: 53.2 h
  Tmax: 1 h
  half-life: 96.1 h
[1]; [6]
  Cmax: 49.2 ng/g and 49.2 ng/mL
  MRT last: 7.27 h
  Tmax: 1 h
  half-life: 5.44 h
[1]; male, Dutch Belted, po, Vitreous Humor, DB rabbit, 50 mg/kg BID, Day 15, read-out: AUClast
  AUC(0-t): 419 ng·h/mL
[1]; male, Dutch Belted, rabbit, choroid-RPE, oral, DB rabbits, Day 15, 50 mg/kg BID, 96 hr, read-out: Mean Choroid-RPE Concentration
  concentration at 96 h: 873 ng/g
[1]; male, Dutch Belted, rabbit, choroid-RPE, oral, DB rabbits, Day 15, 50 mg/kg BID, 168 hr, read-out: Mean Choroid-RPE Concentration
  concentration at 168 h: 645 ng/g
[1]; male, Dutch Belted, rabbit, choroid-RPE, po, DB rabbit, 50 mg/kg BID oral, Day 15, 0 h, read-out: Mean Choroid-RPE concentration
  concentration at 0 h: 3920 ng/g
[1]; male, Dutch Belted, rabbit, choroid-RPE, po, DB rabbit, 50 mg/kg BID oral, Day 15, 1 h, read-out: Mean Choroid-RPE concentration
  concentration at 1 h: 8020 ng/g
[1]; male, Dutch Belted, rabbit, choroid-RPE, po, DB rabbit, 50 mg/kg BID oral, Day 15, 6 h, read-out: Mean Choroid-RPE concentration
  concentration at 6 h: 4370 ng/g
[1]; male, Dutch Belted, rabbit, choroid-RPE, po, DB rabbit, 50 mg/kg BID oral, Day 15, 24 h, read-out: Mean Choroid-RPE concentration
  concentration at 24 h: 2100 ng/g
[1]; male, Dutch Belted, rabbit, choroid-RPE, po, DB rabbit, 50 mg/kg BID oral, Day 15, 240 h, read-out: Mean Choroid-RPE concentration
  concentration at 240 h: 194 ng/g
[1]; male, Dutch Belted, rabbit, iris-ciliary body, po, DB rabbit, 50 mg/kg BID oral, Day 15, 0 h, read-out: Mean Iris-Ciliary Body concentration
  concentration at 0 h: 5080 ng/g
[1]; male, Dutch Belted, rabbit, iris-ciliary body, po, DB rabbit, 50 mg/kg BID oral, Day 15, 1 h, read-out: Mean Iris-Ciliary Body concentration
  concentration at 1 h: 11500 ng/g
[1]; male, Dutch Belted, rabbit, iris-ciliary body, po, DB rabbit, 50 mg/kg BID oral, Day 15, 6 h, read-out: Mean Iris-Ciliary Body concentration
  concentration at 6 h: 8820 ng/g
[1]; male, Dutch Belted, rabbit, iris-ciliary body, po, DB rabbit, 50 mg/kg BID oral, Day 15, 24 h, read-out: Mean Iris-Ciliary Body concentration
  concentration at 24 h: 5560 ng/g
[1]; male, Dutch Belted, rabbit, iris-ciliary body, po, DB rabbit, 50 mg/kg BID oral, Day 15, 96 h, read-out: Mean Iris-Ciliary Body concentration
  concentration at 96 h: 2840 ng/g
[1]; male, Dutch Belted, rabbit, iris-ciliary body, po, DB rabbit, 50 mg/kg BID oral, Day 15, 168 h, read-out: Mean Iris-Ciliary Body concentration
  concentration at 168 h: 2290 ng/g
[1]; male, Dutch Belted, rabbit, iris-ciliary body, po, DB rabbit, 50 mg/kg BID oral, Day 15, 240 h, read-out: Mean Iris-Ciliary Body concentration
  concentration at 240 h: 1620 ng/g
[1]; male, Dutch Belted, rabbit, optic nerve, po, DB rabbit, 50 mg/kg BID oral, Day 15, 0 h, read-out: Optic Nerve concentration
  concentration at 0 h: 45.3 ng/g
[1]; male, Dutch Belted, rabbit, optic nerve, po, DB rabbit, 50 mg/kg BID oral, Day 15, 1 h, read-out: Optic Nerve concentration
  concentration at 1 h: 1550 ng/g
[1]; male, Dutch Belted, rabbit, optic nerve, po, DB rabbit, 50 mg/kg BID oral, Day 15, 6 h, read-out: Optic Nerve concentration
  concentration at 6 h: 133 ng/g
[1]; male, Dutch Belted, rabbit, optic nerve, po, DB rabbit, 50 mg/kg BID oral, Day 15, 24 h, read-out: Optic Nerve concentration
  concentration at 24 h: 27 ng/g
[1]; male, Dutch Belted, rabbit, plasma, po, DB rabbit, 50 mg/kg BID oral, Day 15, 0 h, read-out: Mean plasma concentration
  concentration at 0 h: 104 ng/mL
[1]; male, Dutch Belted, rabbit, plasma, po, DB rabbit, 50 mg/kg BID oral, Day 15, 1 h, read-out: Mean plasma concentration
  concentration at 1 h: 2900 ng/mL
[1]; male, Dutch Belted, rabbit, plasma, po, DB rabbit, 50 mg/kg BID oral, Day 15, 6 h, read-out: Mean plasma concentration
  concentration at 6 h: 320 ng/mL
[1]; male, Dutch Belted, rabbit, plasma, po, DB rabbit, 50 mg/kg BID oral, Day 15, 24 h, read-out: Mean plasma concentration
  concentration at 24 h: 39.9 ng/mL
[1]; male, Dutch Belted, rabbit, retina, oral, DB rabbits, Day 15, 50 mg/kg BID, 0 hr, read-out: Mean Retina Concentration
  concentration at 0 h: 159 ng/g
[1]; male, Dutch Belted, rabbit, retina, oral, DB rabbits, Day 15, 50 mg/kg BID, 1 hr, read-out: Mean Retina Concentration
  concentration at 1 h: 2120 ng/g
[1]; male, Dutch Belted, rabbit, retina, oral, DB rabbits, Day 15, 50 mg/kg BID, 6 hr, read-out: Mean Retina Concentration
  concentration at 6 h: 725 ng/g
[1]; male, Dutch Belted, rabbit, retina, oral, DB rabbits, Day 15, 50 mg/kg BID, 24 hr, read-out: Mean Retina Concentration
  concentration at 24 h: 265 ng/g
[1]; male, Dutch Belted, rabbit, retina, oral, DB rabbits, Day 15, 50 mg/kg BID, 96 hr, read-out: Mean Retina Concentration
  concentration at 96 h: 32.3 ng/g
[1]; male, Dutch Belted, rabbit, retina, oral, DB rabbits, Day 15, 50 mg/kg BID, 168 hr, read-out: Mean Retina Concentration
  concentration at 168 h: 54.9 ng/g
[1]; male, Dutch Belted, rabbit, retina, oral, DB rabbits, Day 15, 50 mg/kg BID, 240 hr, read-out: Mean Retina Concentration
  concentration at 240 h: 39.4 ng/g
[1]; male, Dutch Belted, rabbit, retina, po, DB rabbit, 50 mg/kg BID oral, Day 15, 0 h, read-out: Mean retina concentration
  concentration at 0 h: 159 ng/g
[1]; male, Dutch Belted, rabbit, retina, po, DB rabbit, 50 mg/kg BID oral, Day 15, 1 h, read-out: Mean retina concentration
  concentration at 1 h: 2120 ng/g
[1]; male, Dutch Belted, rabbit, retina, po, DB rabbit, 50 mg/kg BID oral, Day 15, 6 h, read-out: Mean retina concentration
  concentration at 6 h: 725 ng/g
[1]; male, Dutch Belted, rabbit, retina, po, DB rabbit, 50 mg/kg BID oral, Day 15, 24 h, read-out: Mean retina concentration
  concentration at 24 h: 265 ng/g
[1]; male, Dutch Belted, rabbit, retina, po, DB rabbit, 50 mg/kg BID oral, Day 15, 96 h, read-out: Mean retina concentration
  concentration at 96 h: 32.3 ng/g
[1]; male, Dutch Belted, rabbit, retina, po, DB rabbit, 50 mg/kg BID oral, Day 15, 168 h, read-out: Mean retina concentration
  concentration at 168 h: 54.9 ng/g
[1]; male, Dutch Belted, rabbit, retina, po, DB rabbit, 50 mg/kg BID oral, Day 15, 240 h, read-out: Mean retina concentration
  concentration at 240 h: 39.3 ng/g
[1]; male, Dutch Belted, rabbit, vitreous humor, po, DB rabbit, 50 mg/kg BID oral, Day 15, 0 h, read-out: Vitreous concentration
  concentration at 0 h: 2.91 ng/g
[1]; male, Dutch Belted, rabbit, vitreous humor, po, DB rabbit, 50 mg/kg BID oral, Day 15, 1 h, read-out: Vitreous concentration
  concentration at 1 h: 49.2 ng/g
[1]; male, Dutch Belted, rabbit, vitreous humor, po, DB rabbit, 50 mg/kg BID oral, Day 15, 6 h, read-out: Vitreous concentration
  concentration at 6 h: 28.7 ng/g
[1]; male, Dutch Belted, rabbit, vitreous humor, po, DB rabbit, 50 mg/kg BID oral, Day 15, 24 h, read-out: Vitreous concentration
  concentration at 24 h: 2.9 ng/g
[1]; plasma, DB rabbit, 50 mg/kg BID, Day 15
  Tlast: 24 h
[1]; rabbit, 50 mg/kg BID
  C-RPE drug concentration at least 10 days following the last oral administration: 196 ng/mL
[2]
  Mean Stability: 94.3%
